Molecular target: Human immunodeficiency virus type 1 protease (Human immunodeficiency virus 1, UniProt Q72874)
Test: ChEBML_157558
Text: Inhibition of HIV-1 protease.

Compound: N#Cc1ccc(S(=O)(=O)Cc2cccc(C(c3c(O)c4c(oc3=O)CCCCCC4)C3CC3)c2)cc1 (configuration not stated) [4-{3-[Cyclopropyl-(4-hydroxy-2-oxo-5,6,7,8,9,10-hexahydro-2H-cycloocta[b]pyran-3-yl)-methyl]-phenylmethanesulfonyl}-benzonitrile]
- Ki: 1.9 nM

Compound: O=c1oc2c(c(O)c1C(c1cccc(CS(=O)(=O)c3ccccn3)c1)C1CC1)CCCCCC2 (configuration not stated) [3-{Cyclopropyl-[3-(pyridine-2-sulfonylmethyl)-phenyl]-methyl}-4-hydroxy-5,6,7,8,9,10-hexahydro-cycloocta[b]pyran-2-one]
- Ki: 1.9 nM

From BindingDB's records for doi:10.1016/S0960-894X(97)00031-0 (1997)
